Test results as given in paper PMC6001238, “Iterative Chemical Engineering of Vancomycin Leads to Novel Vancomycin Analogs With a High in Vitro Therapeutic Index” (Frontiers in Microbiology, 2018).
In brackets after ≈: the same amount, converted by molar mass.

How the values were obtained:
[1] = test system: E. faecalis VRE 37; test: MIC, broth microdilution, vancomycin-resistant E. faecalis VRE 37 (VanA); format: cell-based, Enterococcus faecalis; details: for MIC: Enterococcus faecalis VRE 37 (vancomycin-resistant), read-out: MIC; for MIC-fold improvement vs. vancomycin: VRE 37, ratio of MIC of vancomycin and MIC of analogue
How it was run: (§1)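 Broth microdilution per CLSI; controls = ultrapure water, non-inoculated broth. One set: + vancomycin 10 μM final alongside test analogue/control drug.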

[2] = test system: MRSA KS6; test: MIC, broth microdilution, MRSA KS6; format: cell-based, Staphylococcus aureus; details: for MIC-fold improvement vs. vancomycin: MRSA KS6, ratio of MIC of vancomycin and MIC of analogue; for MIC: Staphylococcus aureus MRSA KS6, read-out: MIC
How it was run: as §1

[3] = test system: E. faecalis VSE 1; test: MIC, broth microdilution, vancomycin-sensitive E. faecalis (VSE 1); format: cell-based, Enterococcus faecalis; details: for MIC: Enterococcus faecalis VSE 1 (vancomycin-sensitive), read-out: MIC; for MIC-fold improvement vs. vancomycin: VSE 1, ratio of MIC of vancomycin and MIC of analogue
How it was run: as §1

[4] = test system: MRSA KS89; test: MIC, broth microdilution, MRSA KS89; format: cell-based, Staphylococcus aureus; details: for MIC-fold improvement vs. vancomycin: MRSA KS8, ratio of MIC of vancomycin and MIC of analogue; for MIC: Staphylococcus aureus MRSA KS8, read-out: MIC
How it was run: as §1

[5] = test system: E. faecalis VRE 53; test: MIC, broth microdilution, vancomycin-resistant E. faecalis VRE 53 (VanA); format: cell-based, Enterococcus faecalis; details: for MIC: Enterococcus faecalis VRE 53 (vancomycin-resistant), read-out: MIC; for MIC-fold improvement vs. vancomycin: VRE 53, ratio of MIC of vancomycin and MIC of analogue
How it was run: as §1

[6] = test system: E. faecalis VRE 6; test: MIC, broth microdilution, vancomycin-resistant E. faecalis VRE 6 (VanA); format: cell-based, Enterococcus faecalis; details: for MIC: Enterococcus faecalis VRE 6 (vancomycin-resistant), read-out: MIC; for MIC-fold improvement vs. vancomycin: VRE 6, ratio of MIC of vancomycin and MIC of analogue
How it was run: as §1

[7] = test system: S. aureus VRSA; test: MIC, broth microdilution, vancomycin-resistant S. aureus (VRSA); format: cell-based, Staphylococcus aureus; details: for MIC: Staphylococcus aureus VRSA, read-out: MIC; for MIC-fold improvement vs. vancomycin: VRSA, ratio of MIC of vancomycin and MIC of analogue
How it was run: as §1

[8] = test system: E. faecalis VRE 29; test: MIC, broth microdilution, vancomycin-resistant E. faecalis VRE 29 (VanA); format: cell-based, Enterococcus faecalis; details: for MIC: Enterococcus faecalis VRE 29 (vancomycin-resistant), read-out: MIC; for MIC-fold improvement vs. vancomycin: VRE 29, ratio of MIC of vancomycin and MIC of analogue
How it was run: as §1

[9] = test system: Murine leukemia (L1210) cells; test: Cytostatic activity, L1210 cell proliferation; format: cell-based; details: mean ± SD of three experiments; highest concentration tested 250 µM; 2 days; read-out: Toxicity (IC50) L1210
How it was run: (§2)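 Suspensions (300,000–500,000 cells/mL) combined with equal volumes of diluted compound; 37°C; L1210 2 d / CEM 3 d / HeLa 4 d; counted by Coulter counter; IC50 vs untreated wells.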

[10] = test system: S. aureus VISA/HIP5827; test: MIC, broth microdilution, vancomycin-intermediate S. aureus VISA HIP5827; format: cell-based, Staphylococcus aureus; details: for MIC: Staphylococcus aureus VISA/HIP5827, read-out: MIC; for MIC-fold improvement vs. vancomycin: VISA/HIP5827, ratio of MIC of vancomycin and MIC of analogue
How it was run: as §1

[11] = test system: MRSA KS2; test: MIC, broth microdilution, MRSA KS2; format: cell-based, Staphylococcus aureus; details: for MIC-fold improvement vs. vancomycin: MRSA KS2, ratio of MIC of vancomycin and MIC of analogue; for MIC: Staphylococcus aureus MRSA KS2, read-out: MIC
How it was run: as §1

[12] = test system: human cervix carcinoma (HeLa) cells; test: Cytostatic activity, HeLa cell proliferation; format: cell-based; details: mean ± SD of three experiments; highest concentration tested 250 µM; 4 days; read-out: Toxicity (IC50) HeLa
How it was run: as §2

[13] = test system: L1210, CEM and HeLa cell lines; test: Cytostatic activity, average or summary over L1210, CEM and HeLa; format: cell-based; details: average of L1210, CEM and HeLa; read-out: Toxicity (IC50) Average
How it was run: as §2

[14] = test system: S. aureus VSSA (ATCC 6538); test: MIC, broth microdilution, vancomycin-sensitive S. aureus (VSSA/MSSA, ATCC 6538); format: cell-based, Staphylococcus aureus; details: for MIC: Staphylococcus aureus VSSA, read-out: MIC; for MIC-fold improvement vs. vancomycin: VSSA, ratio of MIC of vancomycin and MIC of analogue
How it was run: as §1

[15] = test system: MRSA KS1; test: MIC, broth microdilution, MRSA KS1; format: cell-based, Staphylococcus aureus; details: for MIC-fold improvement vs. vancomycin: MRSA KS1, ratio of MIC of vancomycin and MIC of analogue; for MIC: Staphylococcus aureus MRSA KS1, read-out: MIC
How it was run: as §1

[16] = test system: human T-lymphocyte (CEM) cells; test: Cytostatic activity, CEM cell proliferation; format: cell-based; details: mean ± SD of three experiments; highest concentration tested 250 µM; 3 days; read-out: Toxicity (IC50) CEM
How it was run: as §2

| Compound | MIC [1] [µM] | MIC-fold improvement vs. vancomycin [2] | MIC [2] [µM] | MIC [3] [µM] | MIC-fold improvement vs. vancomycin [3] | MIC-fold improvement vs. vancomycin [4] | MIC [4] [µM] | MIC [5] [µM] | MIC-fold improvement vs. vancomycin [5] | MIC [6] [µM] | MIC-fold improvement vs. vancomycin [6] | MIC [7] [µM] | MIC-fold improvement vs. vancomycin [7] | MIC [8] [µM] | IC50 [9] [µM] | MIC [10] [µM] | MIC-fold improvement vs. vancomycin [10] | MIC-fold improvement vs. vancomycin [11] | MIC [11] [µM] | IC50 [12] [µM] | other results |
| --- | --- | --- | --- | --- | --- | --- | --- | --- | --- | --- | --- | --- | --- | --- | --- | --- | --- | --- | --- | --- | --- |
| CNC(CC(C)C)C(=O)NC1C(=O)NC(CC(N)=O)C(=O)NC2C(=O)NC3C(=O)NC(C(=O)NC(C(=O)NCC(=O)Nc4cccc(OC)c4)c4cc(O)cc(O)c4-c4cc3ccc4O)C(O)c3ccc(c(Cl)c3)Oc3cc2cc(c3OC2OC(CO)C(O)C(O)C2OC2CC(C)(N)C(O)C(C)O2)Oc2ccc(cc2Cl)C1O (centres unmarked) [Vanc-12] | 25 (≈ 40.3 µg/mL) | 1 | 0.78 (≈ 1.26 µg/mL) | 0.78 (≈ 1.26 µg/mL) | 2 | 2 | 0.39 (≈ 0.628 µg/mL) | 12.5 (≈ 20.1 µg/mL) | 32 | 6.25 (≈ 10.1 µg/mL) | 32 | 12.5 (≈ 20.1 µg/mL) | 8 | 12.5 (≈ 20.1 µg/mL) | > 250 | 0.39 (≈ 0.628 µg/mL) | 16 | 2 | 0.39 (≈ 0.628 µg/mL) | 194 ± 78 | IC50 [13]: 231 µM; MIC [14]: 0.39 µM (≈ 0.628 µg/mL); MIC-fold improvement vs. vancomycin [14]: 2; MIC-fold improvement vs. vancomycin [15]: 2; MIC [15]: 0.39 µM (≈ 0.628 µg/mL); IC50 [16]: > 250 µM |
| CCc1ccc(NC(=O)CNC(=O)[C@H]2NC(=O)[C@H]3NC(=O)[C@H](NC(=O)[C@@H]4NC(=O)[C@H](CC(N)=O)NC(=O)[C@H](NC(=O)[C@@H](CC(C)C)NC)[C@H](O)c5ccc(c(Cl)c5)Oc5cc4cc(c5O[C@@H]4O[C@H](CO)[C@@H](O)[C@H](O)[C@H]4O[C@H]4C[C@](C)(N)[C@H](O)[C@H](C)O4)Oc4ccc(cc4Cl)[C@H]3O)c3ccc(O)c(c3)-c3c(O)cc(O)cc32)cc1 [Vanc-13] | 3.13 (≈ 5.04 µg/mL) | 2 | 0.39 (≈ 0.628 µg/mL) | 0.39 (≈ 0.628 µg/mL) | 4 | 2 | 0.39 (≈ 0.628 µg/mL) | 12.5 (≈ 20.1 µg/mL) | 32 | 12.5 (≈ 20.1 µg/mL) | 16 | 3.13 (≈ 5.04 µg/mL) | 32 | 12.5 (≈ 20.1 µg/mL) | > 250 | 0.39 (≈ 0.628 µg/mL) | 16 | 4 | 0.20 (≈ 0.322 µg/mL) | 149 ± 6 | MIC-fold improvement vs. vancomycin [1]: 256; IC50 [13]: 216 µM; MIC [14]: 0.39 µM (≈ 0.628 µg/mL); MIC-fold improvement vs. vancomycin [14]: 2; MIC-fold improvement vs. vancomycin [15]: 2; MIC [15]: 0.39 µM (≈ 0.628 µg/mL); IC50 [16]: > 250 µM |
| CN[C@H](CC(C)C)C(=O)N[C@H]1C(=O)N[C@@H](CC(N)=O)C(=O)N[C@H]2C(=O)N[C@H]3C(=O)N[C@H](C(=O)N[C@H](C(=O)NCC(=O)Nc4ccc(C)cc4C)c4cc(O)cc(O)c4-c4cc3ccc4O)[C@H](O)c3ccc(c(Cl)c3)Oc3cc2cc(c3O[C@@H]2O[C@H](CO)[C@@H](O)[C@H](O)[C@H]2O[C@H]2C[C@](C)(N)[C@H](O)[C@H](C)O2)Oc2ccc(cc2Cl)[C@H]1O [Vanc-15] | 25 (≈ 40.2 µg/mL) | 1 | 0.78 (≈ 1.26 µg/mL) | 1.56 (≈ 2.51 µg/mL) | 1 | 1 | 0.78 (≈ 1.26 µg/mL) | 25 (≈ 40.2 µg/mL) | 16 | 6.25 (≈ 10.1 µg/mL) | 32 | 12.5 (≈ 20.1 µg/mL) | 8 | 12.5 (≈ 20.1 µg/mL) | > 250 | 1.56 (≈ 2.51 µg/mL) | 4 | 2 | 0.39 (≈ 0.628 µg/mL) | 87 ± 12 | MIC-fold improvement vs. vancomycin [1]: 16; MIC-fold improvement vs. vancomycin [8]: 32; IC50 [13]: 196 µM; MIC [14]: 0.78 µM (≈ 1.26 µg/mL); MIC-fold improvement vs. vancomycin [14]: 1; MIC-fold improvement vs. vancomycin [15]: 1; MIC [15]: 0.78 µM (≈ 1.26 µg/mL); IC50 [16]: > 250 µM |
| CN[C@H](CC(C)C)C(=O)N[C@H]1C(=O)N[C@@H](CC(N)=O)C(=O)N[C@H]2C(=O)N[C@H]3C(=O)N[C@H](C(=O)N[C@H](C(=O)NCC(=O)Nc4ccc(F)cc4F)c4cc(O)cc(O)c4-c4cc3ccc4O)[C@H](O)c3ccc(c(Cl)c3)Oc3cc2cc(c3O[C@@H]2O[C@H](CO)[C@@H](O)[C@H](O)[C@H]2O[C@H]2C[C@](C)(N)[C@H](O)[C@H](C)O2)Oc2ccc(cc2Cl)[C@H]1O [Vanc-16] | 50 (≈ 80.9 µg/mL) | 1 | 0.78 (≈ 1.26 µg/mL) | 0.78 (≈ 1.26 µg/mL) | 2 | 1 | 0.78 (≈ 1.26 µg/mL) | 25 (≈ 40.4 µg/mL) | 16 | 12.5 (≈ 20.2 µg/mL) | 16 | 25 (≈ 40.4 µg/mL) | 4 | >50 | > 250 | 0.78 (≈ 1.26 µg/mL) | 8 | 1 | 0.78 (≈ 1.26 µg/mL) | 184 ± 60 | MIC-fold improvement vs. vancomycin [1]: 8; MIC-fold improvement vs. vancomycin [8]: <8; IC50 [13]: 228 µM; MIC [14]: 0.78 µM (≈ 1.26 µg/mL); MIC-fold improvement vs. vancomycin [14]: 1; MIC-fold improvement vs. vancomycin [15]: 1; MIC [15]: 0.78 µM (≈ 1.26 µg/mL); IC50 [16]: > 250 µM |
| CN[C@H](CC(C)C)C(=O)N[C@H]1C(=O)N[C@@H](CC(N)=O)C(=O)N[C@H]2C(=O)N[C@H]3C(=O)N[C@H](C(=O)N[C@H](C(=O)NCC(=O)Nc4cc(OC)cc(OC)c4)c4cc(O)cc(O)c4-c4cc3ccc4O)[C@H](O)c3ccc(c(Cl)c3)Oc3cc2cc(c3O[C@@H]2O[C@H](CO)[C@@H](O)[C@H](O)[C@H]2O[C@H]2C[C@](C)(N)[C@H](O)[C@H](C)O2)Oc2ccc(cc2Cl)[C@H]1O [Vanc-17] | 50 (≈ 82.1 µg/mL) | 1 | 0.78 (≈ 1.28 µg/mL) | 0.78 (≈ 1.28 µg/mL) | 2 | 1 | 0.78 (≈ 1.28 µg/mL) | 25 (≈ 41 µg/mL) | 16 | 6.25 (≈ 10.3 µg/mL) | 32 | 12.5 (≈ 20.5 µg/mL) | 8 | 25 (≈ 41 µg/mL) | > 250 | 0.78 (≈ 1.28 µg/mL) | 8 | 2 | 0.39 (≈ 0.64 µg/mL) | 119 ± 48 | MIC-fold improvement vs. vancomycin [1]: 8; MIC-fold improvement vs. vancomycin [8]: 16; IC50 [13]: 206 µM; MIC [14]: 0.78 µM (≈ 1.28 µg/mL); MIC-fold improvement vs. vancomycin [14]: 1; MIC-fold improvement vs. vancomycin [15]: 1; MIC [15]: 0.78 µM (≈ 1.28 µg/mL); IC50 [16]: > 250 µM |
